According to PMC6199744, “Development of Chemical Proteomics for the Folateome and Analysis of the Kinetoplastid Folateome” (ACS Infectious Diseases, 2018):
Like-named read-outs stand apart in the source and are kept apart here.

Columns and labels:
Assay type in all cases: binding
[1] = target: T1, HeLa cell extract proteins (Homo sapiens, UniProt Q9UJ70); settings: captured protein NAGK; HeLa
T1 construct: endogenous in cells; host or cells: HeLa cell extract

[2] = target: T2, HeLa cell extract proteins (Homo sapiens, UniProt Q8WTW3); settings: protein COG1; HeLa
T2 construct: endogenous in cells; host or cells: HeLa cell extract
T2 sequence (Q8WTW3 1-980): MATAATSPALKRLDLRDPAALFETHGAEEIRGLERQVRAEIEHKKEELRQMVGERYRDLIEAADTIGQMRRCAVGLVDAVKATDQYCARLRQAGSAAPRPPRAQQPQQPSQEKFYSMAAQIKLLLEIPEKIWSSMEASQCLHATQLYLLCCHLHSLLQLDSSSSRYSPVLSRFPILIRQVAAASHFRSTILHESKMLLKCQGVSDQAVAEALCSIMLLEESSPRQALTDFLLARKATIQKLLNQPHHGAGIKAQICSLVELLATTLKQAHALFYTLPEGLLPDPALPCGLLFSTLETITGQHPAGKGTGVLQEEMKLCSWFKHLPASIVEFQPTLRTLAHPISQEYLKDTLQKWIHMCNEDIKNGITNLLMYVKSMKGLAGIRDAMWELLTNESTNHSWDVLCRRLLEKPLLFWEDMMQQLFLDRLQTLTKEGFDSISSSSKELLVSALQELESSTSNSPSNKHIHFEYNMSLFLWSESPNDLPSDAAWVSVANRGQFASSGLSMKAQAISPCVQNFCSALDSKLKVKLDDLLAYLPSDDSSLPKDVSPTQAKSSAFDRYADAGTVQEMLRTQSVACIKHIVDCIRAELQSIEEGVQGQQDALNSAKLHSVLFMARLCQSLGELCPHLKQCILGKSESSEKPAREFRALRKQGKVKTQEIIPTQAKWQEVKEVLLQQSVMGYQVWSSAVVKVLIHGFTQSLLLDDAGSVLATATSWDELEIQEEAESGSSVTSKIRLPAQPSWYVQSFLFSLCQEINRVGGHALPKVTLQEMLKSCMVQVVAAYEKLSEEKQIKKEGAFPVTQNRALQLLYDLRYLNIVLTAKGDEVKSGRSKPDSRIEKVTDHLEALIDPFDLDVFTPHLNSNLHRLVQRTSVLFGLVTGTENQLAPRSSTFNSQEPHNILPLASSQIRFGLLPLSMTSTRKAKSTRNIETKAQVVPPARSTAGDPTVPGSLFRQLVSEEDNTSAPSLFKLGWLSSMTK

[3] = target: T3, HeLa cell extract proteins (Homo sapiens, UniProt Q92688); settings: HeLa; protein ANP32B (ISOFORM 1 OF ACIDIC LEUCINE-RICH NUCLEAR PHOSPHOPROTEIN 32 FAMILY MEMBER B.)
T3 construct: endogenous in cells; host or cells: HeLa cell extract

[4] = target: T4, HeLa cell extract proteins (Homo sapiens, UniProt Q8TDH9); settings: protein MUTED; HeLa
T4 construct: endogenous in cells; host or cells: HeLa cell extract
T4 sequence (Q8TDH9 1-187): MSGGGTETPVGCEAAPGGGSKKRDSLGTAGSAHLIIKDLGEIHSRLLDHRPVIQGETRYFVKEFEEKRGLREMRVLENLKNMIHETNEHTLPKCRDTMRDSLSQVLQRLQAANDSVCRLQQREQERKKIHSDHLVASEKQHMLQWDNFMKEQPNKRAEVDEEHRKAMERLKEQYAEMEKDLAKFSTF

[5] = target: T5, HeLa cell extract proteins (Homo sapiens, UniProt Q9NX61); settings: captured protein TMEM161A; HeLa
T5 construct: endogenous in cells; host or cells: HeLa cell extract
T5 sequence (Q9NX61 29-479): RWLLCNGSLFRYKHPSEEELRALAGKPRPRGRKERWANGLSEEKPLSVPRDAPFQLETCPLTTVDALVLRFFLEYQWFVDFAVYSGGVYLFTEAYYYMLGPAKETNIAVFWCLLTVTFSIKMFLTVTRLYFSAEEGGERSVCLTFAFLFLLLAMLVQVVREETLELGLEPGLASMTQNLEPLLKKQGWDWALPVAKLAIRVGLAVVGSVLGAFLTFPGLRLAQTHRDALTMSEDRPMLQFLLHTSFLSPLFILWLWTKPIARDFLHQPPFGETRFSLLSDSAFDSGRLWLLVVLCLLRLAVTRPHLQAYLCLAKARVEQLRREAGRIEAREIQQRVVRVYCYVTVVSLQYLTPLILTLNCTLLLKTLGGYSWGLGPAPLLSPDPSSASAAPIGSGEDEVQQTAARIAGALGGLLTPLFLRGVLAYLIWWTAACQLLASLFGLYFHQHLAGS

[6] = target: T6, HeLa cell extract proteins (Homo sapiens, UniProt P36776); settings: protein LONP1; HeLa
T6 construct: endogenous in cells; host or cells: HeLa cell extract
T6 sequence (P36776 68-959): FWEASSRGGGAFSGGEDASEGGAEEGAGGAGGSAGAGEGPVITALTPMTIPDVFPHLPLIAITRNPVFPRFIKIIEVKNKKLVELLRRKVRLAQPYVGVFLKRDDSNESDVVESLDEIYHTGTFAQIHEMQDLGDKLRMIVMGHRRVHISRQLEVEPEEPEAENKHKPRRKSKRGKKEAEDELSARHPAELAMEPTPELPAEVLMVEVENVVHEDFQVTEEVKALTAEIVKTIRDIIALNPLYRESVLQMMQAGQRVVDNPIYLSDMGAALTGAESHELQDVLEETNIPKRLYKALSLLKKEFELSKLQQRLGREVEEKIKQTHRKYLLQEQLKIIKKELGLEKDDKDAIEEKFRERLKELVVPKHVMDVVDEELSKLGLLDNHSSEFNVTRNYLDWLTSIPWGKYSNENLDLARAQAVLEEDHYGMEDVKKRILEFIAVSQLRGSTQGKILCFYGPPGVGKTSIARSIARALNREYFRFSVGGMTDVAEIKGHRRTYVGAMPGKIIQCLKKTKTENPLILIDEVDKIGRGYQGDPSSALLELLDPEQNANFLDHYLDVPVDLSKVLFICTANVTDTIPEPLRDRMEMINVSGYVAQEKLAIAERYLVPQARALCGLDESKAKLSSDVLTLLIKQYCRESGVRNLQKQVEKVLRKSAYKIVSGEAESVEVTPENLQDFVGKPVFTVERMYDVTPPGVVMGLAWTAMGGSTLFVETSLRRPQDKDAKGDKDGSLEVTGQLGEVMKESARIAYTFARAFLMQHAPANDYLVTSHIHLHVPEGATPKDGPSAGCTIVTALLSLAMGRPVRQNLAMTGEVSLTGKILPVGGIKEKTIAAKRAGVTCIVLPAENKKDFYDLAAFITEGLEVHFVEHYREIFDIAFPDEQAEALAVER

[7] = target: T7, HeLa cell extract proteins (Homo sapiens, UniProt P52888)
T7 construct: endogenous in cells; host or cells: HeLa cell extract

[8] = target: T8, HeLa cell extract proteins (Homo sapiens, UniProt Q8NBJ5)
T8 construct: endogenous in cells; host or cells: HeLa cell extract

[9] = target: T9, HeLa cell extract proteins (Homo sapiens, UniProt Q15370)
T9 construct: endogenous in cells; host or cells: HeLa cell extract
T9 sequence (Q15370 whole entry): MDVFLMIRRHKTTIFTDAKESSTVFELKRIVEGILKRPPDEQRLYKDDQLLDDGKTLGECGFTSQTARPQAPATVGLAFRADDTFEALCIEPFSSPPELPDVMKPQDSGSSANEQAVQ

T7 sequence (P52888 whole entry): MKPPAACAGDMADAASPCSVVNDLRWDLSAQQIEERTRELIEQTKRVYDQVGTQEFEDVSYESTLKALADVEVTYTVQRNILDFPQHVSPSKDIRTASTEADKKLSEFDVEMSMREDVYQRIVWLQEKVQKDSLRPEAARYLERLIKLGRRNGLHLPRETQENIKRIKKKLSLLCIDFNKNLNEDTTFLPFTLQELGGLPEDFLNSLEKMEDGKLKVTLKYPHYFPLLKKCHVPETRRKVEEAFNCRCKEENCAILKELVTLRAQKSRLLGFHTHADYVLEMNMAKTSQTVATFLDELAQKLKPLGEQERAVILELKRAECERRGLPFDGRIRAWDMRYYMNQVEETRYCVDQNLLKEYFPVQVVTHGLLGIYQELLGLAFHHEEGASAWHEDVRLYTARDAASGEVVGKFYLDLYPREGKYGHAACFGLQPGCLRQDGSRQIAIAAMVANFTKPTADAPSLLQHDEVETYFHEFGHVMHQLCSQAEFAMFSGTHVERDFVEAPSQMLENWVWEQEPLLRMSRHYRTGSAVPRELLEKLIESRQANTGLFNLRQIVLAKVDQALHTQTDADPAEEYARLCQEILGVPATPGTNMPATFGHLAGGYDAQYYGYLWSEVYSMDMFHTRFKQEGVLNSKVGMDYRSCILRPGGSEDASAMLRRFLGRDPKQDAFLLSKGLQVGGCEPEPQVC
T3 sequence (Q92688 whole entry, canonical isoform): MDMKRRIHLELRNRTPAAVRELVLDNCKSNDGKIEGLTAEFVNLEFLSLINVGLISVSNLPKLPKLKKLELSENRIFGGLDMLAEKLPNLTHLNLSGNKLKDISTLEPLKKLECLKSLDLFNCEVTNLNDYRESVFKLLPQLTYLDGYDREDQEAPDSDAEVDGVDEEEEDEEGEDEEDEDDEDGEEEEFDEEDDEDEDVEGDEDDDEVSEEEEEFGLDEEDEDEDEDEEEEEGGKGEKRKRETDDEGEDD
T1 sequence (Q9UJ70 whole entry): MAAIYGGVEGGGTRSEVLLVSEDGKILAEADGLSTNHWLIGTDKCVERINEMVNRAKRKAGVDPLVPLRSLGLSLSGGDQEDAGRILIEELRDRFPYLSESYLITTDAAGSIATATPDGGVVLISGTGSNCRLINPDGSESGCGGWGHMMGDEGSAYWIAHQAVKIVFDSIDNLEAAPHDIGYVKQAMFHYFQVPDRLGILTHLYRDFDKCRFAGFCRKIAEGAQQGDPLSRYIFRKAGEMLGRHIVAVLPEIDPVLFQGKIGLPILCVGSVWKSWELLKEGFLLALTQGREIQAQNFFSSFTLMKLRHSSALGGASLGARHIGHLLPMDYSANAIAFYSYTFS

Structure (SMILES)	fold changes relative to vehicle control [1]	fold changes relative to vehicle control [2]	fold changes relative to vehicle control [3] [fold]	fold changes relative to vehicle control [4]	fold changes relative to vehicle control [5]	fold changes relative to vehicle control [6]	fold changes relative to vehicle control [7]	fold changes relative to vehicle control [8]	fold changes relative to vehicle control [9]	fold changes relative to vehicle control ([7]; protein THOP1, HeLa)	fold changes relative to vehicle control ([8]; HeLa, captured protein GLT25D1)	fold changes relative to vehicle control ([9]; protein TCEB2, HeLa)
Nc1nc2cccc(-c3ccccc3)c2n1Cc1ccc(Cl)c(Cl)c1 [compound 3]	0.77	0.98	4.13	0.99	0.94	1.16						
Nc1nc2[nH]cc(CCc3ccc(C(=O)N[C@@H](CCC(=O)O)C(=O)O)cc3)c2c(=O)[nH]1 [PTX, pemetrexed]							0.95	0.83	1.02			
Nc1nc2c(c(=O)[nH]1)N(C=O)C(CNc1ccc(C(=O)N[C@@H](CCC(=O)O)C(=O)O)cc1)CN2 (stereo partly drawn) [LEU, leucovorin]										0.87	0.95	0.9
CCCCCCOc1cccc(Cc2cnc(N)nc2N)c1 [compound 2]	1.2	1.21	3.3	1.65	1.02	1.41						
NCCOCCOCC(=O)Nc1nc2ncc(CNc3ccc(C(=O)NC(CCC(=O)O)C(=O)O)cc3)nc2c(=O)[nH]1 (stereo not drawn) [compound 6]										1.16	0.93	1.43
CCCCCCOc1ccc(Cc2cnc(N)nc2N)cc1 [compound 1]	0.83	1	1.88	1.09	0.76	0.86						
NCCCNc1ccc(C(=O)NC(CCC(=O)O)C(=O)O)cc1 (stereo not drawn) [compound 7]										0.83	0.97	1.1
